Test: Drug release test according to blocking ratio of chamber unit (Franz diffusion cell)
Format: physicochemical
Description: In order to evaluate drug release characteristics according to the size of the blocking unit (blocking film) that is bonded to the chamber unit, which is for storing the drug, and is for blocking the release of the drug stored in the chamber unit, contact lenses for drug delivery of FIG. 4 having various blocking ratios were prepared.
Specifically, contact lenses for drug delivery bonded to blocking units (blocking films) capable of blocking a […], with respect to a total area of the chamber unit were prepared, a drug was injected into each chamber unit, and drug release characteristics were evaluated.
The drug release test was conducted by putting the contact lens for drug delivery into a Franz diffusion cell and evaluating, and the test was conducted while maintaining the temperature at 37.0±0.5° C. and by using a phosphate buffer solution of pH 7.4. A solution in which lifitegrast was dissolved in distilled water was injected into the chamber unit of contact lenses for drug delivery, and the contact lenses were mounted on a donor. In addition, the experiment was conducted in a manner that 5 mL of the solution in which the drug was released was collected with a syringe from each container, and filled with the same amount of buffer solution at a predetermined sampling time (0.5, 1, 1.5, 2, 3, 4, 6 hours), after 5 mL of the solution containing the collected drug was filtered through a syringe filter, 2 mL each was put into a vial and used as a test solution, and the obtained test solution was analyzed by using high-performance liquid chromatography (HPLC).

CS(=O)(=O)c1cccc(C[C@H](NC(=O)c2c(Cl)cc3c(c2Cl)CCN(C(=O)c2ccc4ccoc4c2)C3)C(=O)O)c1 [lifitegrast]
Cumulative drug release (%) (blocking ratio 0%, 0 h): 0% | Cumulative drug release (%) (blocking ratio 0%, 0.5 h): 95% | Cumulative drug release (%) (blocking ratio 0%, 1 h): 100% | Cumulative drug release (%) (blocking ratio 0%, 1.5 h): 100% | Cumulative drug release (%) (blocking ratio 0%, 2 h): 100% | Cumulative drug release (%) (blocking ratio 0%, 3 h): 100% | Cumulative drug release (%) (blocking ratio 0%, 4 h): 100% | Cumulative drug release (%) (blocking ratio 0%, 5 h): 100% | Cumulative drug release (%) (blocking ratio 0%, 6 h): 100% | Cumulative drug release (%) (blocking ratio 2.5%, 0 h): 0% | Cumulative drug release (%) (blocking ratio 2.5%, 0.5 h): 90% | Cumulative drug release (%) (blocking ratio 2.5%, 1 h): 95% | Cumulative drug release (%) (blocking ratio 2.5%, 1.5 h): 100% | Cumulative drug release (%) (blocking ratio 2.5%, 2 h): 100% | Cumulative drug release (%) (blocking ratio 2.5%, 3 h): 100% | Cumulative drug release (%) (blocking ratio 2.5%, 4 h): 100% | Cumulative drug release (%) (blocking ratio 2.5%, 5 h): 100% | Cumulative drug release (%) (blocking ratio 2.5%, 6 h): 100% | Cumulative drug release (%) (blocking ratio 50%, 0 h): 0% | Cumulative drug release (%) (blocking ratio 50%, 0.5 h): 86% | Cumulative drug release (%) (blocking ratio 50%, 1 h): 90% | Cumulative drug release (%) (blocking ratio 50%, 1.5 h): 93% | Cumulative drug release (%) (blocking ratio 50%, 2 h): 96% | Cumulative drug release (%) (blocking ratio 50%, 3 h): 100% | Cumulative drug release (%) (blocking ratio 50%, 4 h): 100% | Cumulative drug release (%) (blocking ratio 50%, 5 h): 100% | Cumulative drug release (%) (blocking ratio 50%, 6 h): 100% | Cumulative drug release (%) (blocking ratio 75%, 0 h): 0% | Cumulative drug release (%) (blocking ratio 75%, 0.5 h): 61% | Cumulative drug release (%) (blocking ratio 75%, 1 h): 77% | Cumulative drug release (%) (blocking ratio 75%, 1.5 h): 83% | Cumulative drug release (%) (blocking ratio 75%, 2 h): 87% | Cumulative drug release (%) (blocking ratio 75%, 3 h): 91% | Cumulative drug release (%) (blocking ratio 75%, 4 h): 94% | Cumulative drug release (%) (blocking ratio 75%, 5 h): 97% | Cumulative drug release (%) (blocking ratio 75%, 6 h): 100% | Cumulative drug release (%) (blocking ratio 85%, 0 h): 0% | Cumulative drug release (%) (blocking ratio 85%, 0.5 h): 49% | Cumulative drug release (%) (blocking ratio 85%, 1 h): 59% | Cumulative drug release (%) (blocking ratio 85%, 1.5 h): 65% | Cumulative drug release (%) (blocking ratio 85%, 2 h): 73% | Cumulative drug release (%) (blocking ratio 85%, 3 h): 79% | Cumulative drug release (%) (blocking ratio 85%, 4 h): 87% | Cumulative drug release (%) (blocking ratio 85%, 5 h): 93% | Cumulative drug release (%) (blocking ratio 85%, 6 h): 98% | Cumulative drug release (%) (blocking ratio 95%, 0 h): 0% | Cumulative drug release (%) (blocking ratio 95%, 0.5 h): 33% | Cumulative drug release (%) (blocking ratio 95%, 1 h): 41% | Cumulative drug release (%) (blocking ratio 95%, 1.5 h): 51% | Cumulative drug release (%) (blocking ratio 95%, 2 h): 59% | Cumulative drug release (%) (blocking ratio 95%, 3 h): 71% | Cumulative drug release (%) (blocking ratio 95%, 4 h): 83% | Cumulative drug release (%) (blocking ratio 95%, 5 h): 90% | Cumulative drug release (%) (blocking ratio 95%, 6 h): 94% | Cumulative drug release (%) (blocking ratio 100%, 0 h): 0% | Cumulative drug release (%) (blocking ratio 100%, 0.5 h): 0% | Cumulative drug release (%) (blocking ratio 100%, 1 h): 0% | Cumulative drug release (%) (blocking ratio 100%, 1.5 h): 0% | Cumulative drug release (%) (blocking ratio 100%, 2 h): 0% | Cumulative drug release (%) (blocking ratio 100%, 3 h): 0% | Cumulative drug release (%) (blocking ratio 100%, 4 h): 0% | Cumulative drug release (%) (blocking ratio 100%, 5 h): 0% | Cumulative drug release (%) (blocking ratio 100%, 6 h): 0%

— patent US20240033124A1, “DRUG DELIVERY CONTACT LENS AND OPHTHALMIC PHARMACEUTICAL COMPOSITION” (DAE WON PHARMACEUTICAL CO., LTD, priority 2021, published 2024)
